Source: the supplement of paper PMC4862054

Tests used:
CAL-120 [1] = assay: normalised viability (% of control), CellTiter-Blue; higher = more viable cells (about 100 = DMSO control); conditions: incubation time: 72 h
Procedure, shortened: (§1)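 The reported figure is normalised viability at a single listed concentration of the series. Breast cancer cell lines (20 µl suspension) went onto 384-well plates holding compound in 5 µl medium for 72 h. CellTiter-Blue (2.5 µl, 2 h, 37 °C) was read by fluorescence at 560/590 nm, and each plate was scaled to vehicle at 100 and a positive kill control at 0.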

BT-474 [2] = assay: as above; conditions: incubation time: 72 h
Procedure, shortened: as §1

MDA-MB-231 [3] = assay: as above; conditions: incubation time: 72 h
Procedure, shortened: as §1

CAL-120 [4] = assay: normalised viability (% of control), CellTiter-Blue; higher = more viable cells (about 100 = DMSO control); conditions: 100 nM; incubation time: 72 h
Description: (§2)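 DSRT, CellTiter-Blue viability, 72 h incubation. Signal is normalised to DMSO and benzethonium chloride controls. Value is the normalised response at dose 3.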

MFM-223 [5] = assay: as above; conditions: 100 nM; incubation time: 72 h
Description: as §2

CAL-51 [6] = assay: as above; conditions: 10 nM; incubation time: 72 h
Description: as §2

MDA-MB-436 [7] = assay: as above; conditions: 100 nM; incubation time: 72 h
Description: as §2

MCF-10A = assay: drug sensitivity score (DSS), CellTiter-Glo (DSS (AUC-based score)); higher = stronger drug effect (viability inhibition or cytotoxicity); extreme values may be limits of the assay; conditions: incubation time: 72 h
Procedure, shortened: (§3)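 In 384-well plates, compound was laid out at 5 concentrations in 10-fold steps over a 10,000-fold range specific to each compound, and breast cancer cell lines were seeded on top in 20 µl suspension for a 72 h incubation. CellTox Green fluorescence and then CellTiter-Glo luminescence were read, and each plate was normalised to 0.1 % DMSO and a positive kill control. The drug sensitivity score was calculated from the area under the fitted dose-response curve.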

HCC1599 = assay: as above; conditions: incubation time: 72 h
Procedure, shortened: as §3

CAL-120 [8] = assay: as above; conditions: incubation time: 72 h
Procedure, shortened: as §3

BT-474 [9] = assay: as above; conditions: incubation time: 72 h
Procedure, shortened: as §3

MDA-MB-453 = assay: as above; conditions: incubation time: 72 h
Procedure, shortened: as §3

CAL-148 = assay: as above; conditions: incubation time: 72 h
Procedure, shortened: as §3

MFM-223 [10] = assay: as above; conditions: incubation time: 72 h
Procedure, shortened: as §3

HDQ-P1 = assay: as above; conditions: incubation time: 72 h
Procedure, shortened: as §3

MDA-MB-468 = assay: as above; conditions: incubation time: 72 h
Procedure, shortened: as §3

MDA-MB-231 [11] = assay: as above; conditions: incubation time: 72 h
Procedure, shortened: as §3

BT-549 = assay: as above; conditions: incubation time: 72 h
Procedure, shortened: as §3

CAL-51 [12] = assay: as above; conditions: incubation time: 72 h
Procedure, shortened: as §3

SK-BR-3 = assay: as above; conditions: incubation time: 72 h
Procedure, shortened: as §3

HCC1937 = assay: as above; conditions: incubation time: 72 h
Procedure, shortened: as §3

CAL-85-1 = assay: as above; conditions: incubation time: 72 h
Procedure, shortened: as §3

MDA-MB-436 [13] = assay: as above; conditions: incubation time: 72 h
Procedure, shortened: as §3

Hs578T = assay: as above; conditions: incubation time: 72 h
Procedure, shortened: as §3

HCC1143 = assay: as above; conditions: incubation time: 72 h
Procedure, shortened: as §3

DU-4475 = assay: as above; conditions: incubation time: 72 h
Procedure, shortened: as §3

SMILES | normalised viability (CAL-120 [1]; 10 nM) | normalised viability (CAL-120 [1]; 1000 nM) | normalised viability (CAL-120 [1]; 10000 nM) | normalised viability (BT-474 [2]; 10 nM) | normalised viability (BT-474 [2]; 1000 nM) | normalised viability (BT-474 [2]; 10000 nM) | normalised viability (MDA-MB-231 [3]; 10 nM) | normalised viability (MDA-MB-231 [3]; 1000 nM) | normalised viability (MDA-MB-231 [3]; 10000 nM) | normalised viability (CAL-120 [4]) | normalised viability (MFM-223 [5]) | normalised viability (CAL-51 [6]) | normalised viability (MDA-MB-436 [7]) | drug sensitivity score (MCF-10A) | drug sensitivity score (HCC1599) | drug sensitivity score (CAL-120 [8]) | drug sensitivity score (BT-474 [9]) | drug sensitivity score (MDA-MB-453) | drug sensitivity score (CAL-148) | drug sensitivity score (MFM-223 [10]) | drug sensitivity score (HDQ-P1) | drug sensitivity score (MDA-MB-468) | drug sensitivity score (MDA-MB-231 [11]) | drug sensitivity score (BT-549) | drug sensitivity score (CAL-51 [12]) | drug sensitivity score (SK-BR-3) | drug sensitivity score (HCC1937) | drug sensitivity score (CAL-85-1) | drug sensitivity score (MDA-MB-436 [13]) | drug sensitivity score (Hs578T) | drug sensitivity score (HCC1143) | drug sensitivity score (DU-4475)
O=C(Nc1ccncc1)C(=O)c1cn(Cc2ccc(Cl)cc2)c2ccccc12 [Indibulin] | 85.7% | 35.9% | 28.1% | 99.9% | 47.2% | 39.2% | 103% | 20.3% | 16.1% | 36.5% | 108% | 100% | 73.8% | 0 | 7.03 | 6.2 | 4.97 | 6.57 | 0 | 7.28 | 3.33 | 12.2 | 3.55 | 12.6 | 19.4 | 12.8 | 3.81 | 13 | 11.9 | 7.7 | 5.89 | 1.15
N#Cc1ccc(COC[C@H]2O[C@@H](n3c(NCc4ccc(Cl)c(Cl)c4)nc4c(N)ncnc43)[C@H](O)[C@@H]2O)cc1 | 103% | 110% | 62.4% | 135% | 95% | 89.5% | 128% | 77.3% | 57.2% | 106% | 93.9% | 109% | 104% | 1.78 | 0 | 0 | 3.43 | 0 | 0 | 0.407 | 1.31 | 2.09 | 0 | 3.44 | 0 | 2.28 | 3.1 | 0 | 0 | 1.73 | 1.09 | 2.77
COCC1(CO)C(=O)C2CCN1CC2 (configuration not stated) [Prima-1 Met] | 85% | 99.8% | 102% | 109% | 98.5% | 40.4% | 95.4% | 92.7% | 88.7% | 91.5% | 87.6% | 93.9% | 101% | 0 | 0 | 0 | 0 | 0 | 0 | 0 | 0 | 0 | 0 | 2.79 | 0 | 0 | 0 | 0 | 0 | 0 | 0 | 0
O=C(Nc1cccnc1)N1CCC(Cc2cccc(Oc3ccc(C(F)(F)F)cn3)c2)CC1 [PF-3845] | 99.1% | 105% | 120% | 128% | 111% | 40.5% | 106% | 115% | 127% | 96.5% | 90.1% | 101% | 113% | 0 | 1.04 | 0.24 | 0 | 0 | 0 | 0 | 0 | 3.47 | 0 | 1.34 | 2.47 | 0 | 0 | 0.0221 | 0 | 0 | 0 | 0
NC(=O)c1ccc(I)c([N+](=O)[O-])c1 [Iniparib] | 87.3% | 98.6% | 72.7% | 95.2% | 106% | 96.6% | 88.1% | 89.6% | 111% | 105% | 92.4% | 93% | 88.5% | 0 | 0 | 0 | 0 | 0 | 0 | 0 | 0 | 3.75 | 0 | 0 | 0 | 0 | 0 | 0 | 3.5 | 0 | 0 | 0
C=C1C[C@@H]2[C@H](CC[C@]3(C)C(=O)CC[C@@H]23)[C@@]2(C)C=CC(=O)C=C12 [Exemestane] | 96.1% | 92.7% | 84% | 111% | 93.7% | 103% | 101% | 98.1% | 124% | 92.7% | 93% | 96.2% | 82.8% | 0 | 0 | 0 | 0 | 0 | 0 | 0 | 0 | 0 | 0 | 0 | 0 | 0 | 0 | 0 | 0 | 0 | 0 | 0
